{"source": "patent US20060160135A1", "about": "“SF-1 and LRH-1 modulator development” (priority 2004, published 2006)", "key": {"[1]": {"target": "T1, human SF-1 (Homo sapiens, UniProt Q13285)", "T1 construct": "For E. coli expression the SF-1 G219-T461 insert was cloned into a modified pET vector; made in house", "T1 sequence (Q13285 219-461)": "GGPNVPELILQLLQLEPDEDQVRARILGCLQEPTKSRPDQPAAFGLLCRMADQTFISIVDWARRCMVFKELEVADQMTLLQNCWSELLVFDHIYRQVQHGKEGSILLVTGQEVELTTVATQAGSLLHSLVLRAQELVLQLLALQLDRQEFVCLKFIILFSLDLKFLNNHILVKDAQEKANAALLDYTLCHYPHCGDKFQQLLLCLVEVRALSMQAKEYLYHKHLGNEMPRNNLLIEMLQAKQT", "T1 sequence (Q15788 595-780 partner limits assumed)": "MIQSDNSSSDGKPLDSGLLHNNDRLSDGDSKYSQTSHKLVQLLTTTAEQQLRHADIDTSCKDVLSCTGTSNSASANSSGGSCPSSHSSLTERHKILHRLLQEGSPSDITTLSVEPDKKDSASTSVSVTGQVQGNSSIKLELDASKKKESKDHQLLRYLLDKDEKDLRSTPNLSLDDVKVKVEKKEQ", "assay": "AlphaScreen coactivator (SRC-1/NCoA1) recruitment to His-tagged SF-1 LBD", "format": "biochemical", "details": "for dose-dependent NCoA1/SRC1 recruitment to SF-1: FIG. 7B, liposome-washed SF-1", "from_the_text": "However, the lipids binding SF-1 could be partially extracted by washing the proteins with liposomes prepared using phosphatidylcholine (C22 acyl chain length). It was reasoned that such liposomes with long acyl chains could act as a sink for extracted lipids, without binding the receptors themselves. After such washing the coactivator binding by SF-1 was diminished, but could be activated by the addition of phosphatidylethanolamine (FIG. 5A). The PE 16:0 16:1 observed in the crystal structure is unavailable commercially, so it could not be readily obtained. […] (Parks et al., Science, 1999, 284:1365-8; Makishima et al., Science, 1999, 284:1362-5.)\nA variety of different methods for detecting molecular interactions can be used. For example, Alpha Screen technology (Perkin Elmer) is suitable to detect the interaction of the receptor with the coactivator fragment. In this case it is suitable to engineer the ligand-binding domain of the SF-1 and LRH-1 as an N-terminally HIS-tagged protein that can bind the acceptor bead (containing Nickel moieties that will bind the HIS tag). The coactivator fragment can be synthesized containing a biotin moiety that will bind the donor bead. In the presence of ‘activating’ compounds the association of the receptor with the co-regulator may be strengthened, whereas the presence of ‘inhibitory’ compounds may destabilize this interaction. Libraries of chemicals, or derivatives, can be quantified for their effects on co-regulator binding.\nThus, in an exemplary implementation, the Alpha Screen Histidine detection (Nickel chelate) kit (Perkin Elmer) is used to detect binding between His-tagged receptor LBD and biotinylated coactivator peptides or fragments. The assay is performed in Costar 384-well white polystyrene plates (Coming Inc.), in a total volume of 20 μL. Compounds to be tested for their abilities to modulate the interaction of nuclear receptor with coactivator are added to the 384-well plate in 1 μL of DMSO or buffer in advance of addition of the receptor and coactivator proteins.\nReactions are initiated in 15 μl containing 50 nM His-tagged nuclear receptor and […] biotin-tagged coactivator fragment, using buffer containing 50 mM Bis-tris HCl (pH 7.0), 50 mM KCl, 0.05% Tween 20, 1 mM DTT, 0.1% BSA. Other buffer variations can be tested to optimize the largest difference in signals obtained using the apo receptor and receptor bound to compounds already determined to bind and activate the receptor. After the protein solutions are added to the compounds, the plate is sealed and incubated at room temp for 2 hours. After incubation, a 5 μL mixture containing streptavidin donor beads (15 μg/ml) and Ni-chelate acceptor beads (15 μg/ml) are added from the Nickel chelate kit. Plates are resealed and incubated in the dark for 2 hours at room temperature and then read in an AlphaFusion reader set at a read time of 1 s/well.\nA signal is produced by the binding of coactivator to nuclear receptor that can be detected by the AlphaFusion reader (the binding brings the acceptor beads into close proximity of the donor beads, which allows the acceptor beads to detect the singlet oxygens produced by the donor beads, causing them to emit a light detected by the instrument). Data analysis can be performed using GraphPad Prism (GraphPad Software, Inc.). […]"}, "[2]": {"system": "SF-1", "details": "CV-1 cells; cited from earlier work"}, "[3]": {"target": "coactivator fragment (GST-coactivator fusion protein; the filing does not say which)", "assay": "co-expression in E. coli, metal affinity purification of His-tagged LRH-1"}}, "data": [{"compound": "phosphatidylethanolamine", "values": [{"measurement": "coactivator binding by SF-1 after liposome washing", "setting": "[1]; SF-1 washed with phosphatidylcholine liposomes, then lipid added", "result": "activated"}]}, {"compound": "C[C@@H](CO)CCC[C@@H](C)[C@H]1CC[C@H]2[C@@H]3CC=C4C[C@@H](O)CC[C@]4(C)[C@H]3CC[C@]12C", "note": "[26-hydroxycholesterol]", "values": [{"measurement": "SF-1-dependent transcriptional activity", "setting": "[2]", "result": "modest increase"}]}, {"compound": "His-tagged human LRH-1 LBD (S251-A495) E488K (from UniProt O00482-2) (receptor)", "values": [{"measurement": "decrease in coactivator fragment binding compared to the LRH-1-WT protein", "setting": "[3]", "result": 70, "unit": "%"}]}, {"compound": "CC/C=C\\C/C=C\\C/C=C\\CCCCCCCC(=O)OC[C@H](COP(=O)(O)OCCN)OC(=O)CCCCCCC/C=C\\C/C=C\\C/C=C\\CC", "note": "[PE-18:3, 1,2-dilinolenoyl-sn-glycero-3-phosphoethanolamine]", "values": [{"measurement": "activation of wild-type SF-1 to bind NCoA1 as measured by AlphaScreen", "setting": "[1]; 50 μM compound, FIG. 7A", "result": "activates"}, {"measurement": "dose-dependent NCoA1/SRC1 recruitment to SF-1", "setting": "[1]", "result": "Dose-dependent"}, {"measurement": "dose-dependent NCoA1/SRC1 recruitment to SF-1", "setting": "[1]; listed as PE 18:3 18:3", "result": "dose-dependent increase"}, {"measurement": "EC50", "setting": "[1]; SF-1 protein washed with phosphatidylcholine liposomes, biotinylated GST-SRC-1 fragment", "result": 30, "unit": "µM"}]}, {"compound": "C[C@@H](CO)CCC[C@@H](C)[C@H]1CC[C@H]2[C@@H]3CC=C4C[C@@H](O)CC[C@]4(C)[C@H]3CC[C@]12C", "note": "[27-hydroxycholesterol]", "values": [{"measurement": "SF-1-dependent transcriptional activity", "setting": "[2]", "result": "modest increase"}]}, {"compound": "C[C@H](CCCC(C)(C)O)[C@H]1CC[C@H]2[C@@H]3CC=C4C[C@@H](O)CC[C@]4(C)[C@H]3CC[C@]12C", "note": "[25-hydroxycholesterol]", "values": [{"measurement": "SF-1-dependent transcriptional activity", "setting": "[2]", "result": "modest increase"}]}]}
